Results published in US6420131B1, “Use of fluorescein aryl ethers in high throughput cytochrome P450 inhibition assays” (Gentest Corporation, priority 1999, dated 2002).

What was measured:
Details in all cases: substrate uM: Ia 2, AMMC 20, CEC 40, MFC 50, BFC 50, BQ 40, BzRes 50; 30 min; enzyme 50 nM
[1] = molecular target: T1, Rat CYP3A2 (Rattus norvegicus, UniProt P05183); assay: Turnover of fluorometric substrates by rat CYP3A2
T1 sequence (P05183 1-504): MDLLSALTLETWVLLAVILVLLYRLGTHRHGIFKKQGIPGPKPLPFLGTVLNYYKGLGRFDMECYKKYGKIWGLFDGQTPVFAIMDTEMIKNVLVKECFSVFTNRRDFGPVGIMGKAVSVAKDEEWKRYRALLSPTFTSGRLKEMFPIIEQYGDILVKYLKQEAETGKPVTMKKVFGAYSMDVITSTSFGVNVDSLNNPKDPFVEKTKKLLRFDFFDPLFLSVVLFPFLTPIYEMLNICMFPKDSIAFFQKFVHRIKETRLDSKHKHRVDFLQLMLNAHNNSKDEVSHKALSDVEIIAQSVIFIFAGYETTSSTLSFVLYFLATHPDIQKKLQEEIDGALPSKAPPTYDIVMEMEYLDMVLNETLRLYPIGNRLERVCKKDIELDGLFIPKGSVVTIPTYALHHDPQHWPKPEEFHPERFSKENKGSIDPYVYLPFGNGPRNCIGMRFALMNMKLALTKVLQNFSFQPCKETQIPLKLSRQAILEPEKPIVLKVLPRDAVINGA

[2] = molecular target: T2, Rat CYP2C11 (Rattus norvegicus, UniProt P08683); assay: Turnover of fluorometric substrates by rat CYP2C11
T2 sequence (P08683 1-500): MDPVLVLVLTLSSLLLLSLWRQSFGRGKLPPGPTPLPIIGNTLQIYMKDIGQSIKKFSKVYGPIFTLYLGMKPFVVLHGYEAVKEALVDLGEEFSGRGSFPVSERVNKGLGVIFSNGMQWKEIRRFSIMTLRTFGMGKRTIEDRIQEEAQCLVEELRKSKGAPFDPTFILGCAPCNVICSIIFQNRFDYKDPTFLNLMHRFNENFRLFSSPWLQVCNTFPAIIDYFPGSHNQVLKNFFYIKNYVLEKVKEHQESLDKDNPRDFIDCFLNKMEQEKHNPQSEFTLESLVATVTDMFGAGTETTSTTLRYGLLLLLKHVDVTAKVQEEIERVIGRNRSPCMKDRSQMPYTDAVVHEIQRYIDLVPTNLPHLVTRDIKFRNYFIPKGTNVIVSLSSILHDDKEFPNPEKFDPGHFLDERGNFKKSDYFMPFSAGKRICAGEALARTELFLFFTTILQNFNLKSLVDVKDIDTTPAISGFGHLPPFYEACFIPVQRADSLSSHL

[3] = molecular target: T3, Rat CYP2D1 (Rattus norvegicus, UniProt P10633); assay: Turnover of fluorometric substrates by rat CYP2D1
T3 sequence (P10633 1-504): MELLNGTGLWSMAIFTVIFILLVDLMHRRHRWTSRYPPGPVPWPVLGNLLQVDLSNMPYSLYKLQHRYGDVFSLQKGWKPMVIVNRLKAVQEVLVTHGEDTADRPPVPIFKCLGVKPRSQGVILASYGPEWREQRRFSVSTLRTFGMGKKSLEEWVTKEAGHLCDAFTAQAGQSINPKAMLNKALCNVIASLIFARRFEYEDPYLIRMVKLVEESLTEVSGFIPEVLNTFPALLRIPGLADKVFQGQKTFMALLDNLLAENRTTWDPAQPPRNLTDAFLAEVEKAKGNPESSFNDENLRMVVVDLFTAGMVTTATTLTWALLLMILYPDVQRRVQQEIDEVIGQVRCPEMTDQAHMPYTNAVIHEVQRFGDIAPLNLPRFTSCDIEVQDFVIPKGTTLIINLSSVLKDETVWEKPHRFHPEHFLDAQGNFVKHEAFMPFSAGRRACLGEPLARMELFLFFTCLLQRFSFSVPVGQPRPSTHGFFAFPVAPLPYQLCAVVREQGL

[4] = molecular target: T4, Rat CYP2C13 (Rattus norvegicus, UniProt P20814); assay: Turnover of fluorometric substrates by rat CYP2C13
T4 sequence (P20814 1-490): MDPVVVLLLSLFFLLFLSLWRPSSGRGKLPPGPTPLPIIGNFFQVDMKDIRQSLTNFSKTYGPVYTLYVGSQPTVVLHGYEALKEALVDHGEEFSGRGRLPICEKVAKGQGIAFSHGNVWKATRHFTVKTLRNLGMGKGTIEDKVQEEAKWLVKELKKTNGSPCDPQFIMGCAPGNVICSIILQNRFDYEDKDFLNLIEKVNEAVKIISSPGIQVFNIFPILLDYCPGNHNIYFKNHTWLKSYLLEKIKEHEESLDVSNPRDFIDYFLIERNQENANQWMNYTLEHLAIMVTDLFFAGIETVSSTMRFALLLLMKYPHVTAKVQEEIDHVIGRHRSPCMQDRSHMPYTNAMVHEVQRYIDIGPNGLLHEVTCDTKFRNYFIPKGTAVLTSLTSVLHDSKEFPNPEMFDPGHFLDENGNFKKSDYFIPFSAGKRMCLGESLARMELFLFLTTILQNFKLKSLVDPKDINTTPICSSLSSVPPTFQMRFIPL

[5] = molecular target: Rat CYP2A2 (Rattus norvegicus, UniProt P15149); assay: Turnover of fluorometric substrates by rat CYP2A2
Chain of Rat CYP2A2 (P15149 whole entry): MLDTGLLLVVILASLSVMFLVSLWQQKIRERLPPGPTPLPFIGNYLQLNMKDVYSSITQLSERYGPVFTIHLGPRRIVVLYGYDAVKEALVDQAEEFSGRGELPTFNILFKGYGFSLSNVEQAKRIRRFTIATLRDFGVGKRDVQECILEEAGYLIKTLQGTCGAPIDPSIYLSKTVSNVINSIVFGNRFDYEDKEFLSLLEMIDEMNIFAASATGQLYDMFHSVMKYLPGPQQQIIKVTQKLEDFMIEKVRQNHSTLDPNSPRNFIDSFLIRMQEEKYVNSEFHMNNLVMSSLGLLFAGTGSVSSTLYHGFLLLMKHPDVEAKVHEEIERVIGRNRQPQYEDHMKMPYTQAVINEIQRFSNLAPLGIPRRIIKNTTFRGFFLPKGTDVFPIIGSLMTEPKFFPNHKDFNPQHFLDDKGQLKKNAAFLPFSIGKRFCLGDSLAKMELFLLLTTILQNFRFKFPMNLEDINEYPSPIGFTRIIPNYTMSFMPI

[6] = molecular target: T5, Rat CYP3A1 (Rattus norvegicus, UniProt P04800); assay: Turnover of fluorometric substrates by rat CYP3A1
T5 sequence (P04800 1-504): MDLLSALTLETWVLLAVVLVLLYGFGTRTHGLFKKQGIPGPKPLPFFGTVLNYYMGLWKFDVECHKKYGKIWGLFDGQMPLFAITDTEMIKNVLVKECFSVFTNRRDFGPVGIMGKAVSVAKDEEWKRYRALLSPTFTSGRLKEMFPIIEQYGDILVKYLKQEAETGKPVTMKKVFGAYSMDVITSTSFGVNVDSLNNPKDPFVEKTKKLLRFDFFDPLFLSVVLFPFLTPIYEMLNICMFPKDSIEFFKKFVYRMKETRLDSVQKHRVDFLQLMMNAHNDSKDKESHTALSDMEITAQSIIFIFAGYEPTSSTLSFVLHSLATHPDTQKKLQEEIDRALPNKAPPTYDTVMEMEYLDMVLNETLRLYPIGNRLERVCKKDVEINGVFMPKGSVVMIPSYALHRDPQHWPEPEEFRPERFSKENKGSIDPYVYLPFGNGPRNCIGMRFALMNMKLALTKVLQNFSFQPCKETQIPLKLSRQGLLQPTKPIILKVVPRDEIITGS

| Structure (SMILES) | Turnover Numbers, CYP3A2 [1] | Turnover Numbers, CYP2C11 [2] | Turnover Numbers, CYP2D1 [3] | Turnover Numbers, CYP2C13 [4] | Turnover Numbers, CYP2A2 [5] | Turnover Numbers, CYP3A1 [6] |
| --- | --- | --- | --- | --- | --- | --- |
| O=c1cc(C(F)(F)F)c2ccc(OCc3ccccc3)cc2o1 [BFC, 7-Benzyloxy-4-trifluoromethylcoumarin] | 1.04 pmol product/min/pmol enzyme | 0.34 pmol product/min/pmol enzyme | 0.25 pmol product/min/pmol enzyme | 0.74 pmol product/min/pmol enzyme | 0.26 pmol product/min/pmol enzyme | 1.33 pmol product/min/pmol enzyme |
| O=c1ccc2nc3ccc(OCc4ccccc4)cc3oc-2c1 [BzRes, 7-benzyloxyresorufin] | 0.09 pmol product/min/pmol enzyme | 0.05 pmol product/min/pmol enzyme | 0.02 pmol product/min/pmol enzyme | 0.01 pmol product/min/pmol enzyme |  | 0.06 pmol product/min/pmol enzyme |
| CCOc1ccc2cc(C#N)c(=O)oc2c1 [CEC, 7-Ethoxy-3-cyanocoumarin] | 0.15 pmol product/min/pmol enzyme | 0.55 pmol product/min/pmol enzyme |  |  | 0.04 pmol product/min/pmol enzyme | 0.08 pmol product/min/pmol enzyme |

More lines, now with the values ahead:

| Turnover Numbers, CYP3A2 [1] | Turnover Numbers, CYP2C11 [2] | Turnover Numbers, CYP2D1 [3] | Turnover Numbers, CYP2C13 [4] | Turnover Numbers, CYP2A2 [5] | Turnover Numbers, CYP3A1 [6] | Structure (SMILES) |
| --- | --- | --- | --- | --- | --- | --- |
| 9.8 pmol product/min/pmol enzyme |  | 5.3 pmol product/min/pmol enzyme |  | 2.8 pmol product/min/pmol enzyme | 8.4 pmol product/min/pmol enzyme | c1ccc(COc2ccc3cccnc3c2)cc1 [BQ, 7-Benzyloxyquinoline] |
| 0.015 pmol product/min/pmol enzyme | 0.065 pmol product/min/pmol enzyme | 0.159 pmol product/min/pmol enzyme | 0.003 pmol product/min/pmol enzyme | 0.030 pmol product/min/pmol enzyme | 0.027 pmol product/min/pmol enzyme | O=C(OCc1ccccc1)c1ccccc1-c1c2ccc(=O)cc-2oc2cc(OCc3ccccc3)ccc12 [Compound Ia, O-Benzylfluorescein Benzyl Ester] |
|  | 5.57 pmol product/min/pmol enzyme | 0.09 pmol product/min/pmol enzyme | 0.21 pmol product/min/pmol enzyme | 0.08 pmol product/min/pmol enzyme |  | COc1ccc2c(C(F)(F)F)cc(=O)oc2c1 [MFC, 7-Methoxy-4-trifluoromethylcoumarin] |
